Reference: a melting point compilation (Tetko et al.; mined from patent text by program, amines drawn as free bases though some values may be those of a salt)

Row | Structure (SMILES) | melting point [°C]
1 | CC1CC(c2ccc(CCCCN)cc2)=NNC1=O (centres undefined) | 118 to 120
2 | CC1(C)CC(=O)C2C(=NC3=C(C(=O)CC(C)(C)C3)C2c2ccc(F)c(C#N)c2)C1 (centres undefined) | 274 to 275
3 | Oc1ccc(-c2ccc(O)c(Br)c2)cc1Br | 118 to 121
4 | O=S1(=O)CCCS(=O)(=O)C1(CCCCl)c1ccccc1 | 182
5 | COC(=O)c1cc(C(=O)OC)cc(-c2ccc(C=O)cc2)c1 | 166 to 169
6 | N#Cc1ccc(C(O)Cc2ccc(C#N)cc2[N+](=O)[O-])cc1 (centres undefined) | 147 to 153
7 | COCC1CN(C(=O)c2cc(OC)c(OC)c(OC)c2)CCN1C(=O)C1=Cc2cc(OC)c(OC)cc2CCC1 (centres undefined) | 137
8 | Cc1cc(F)ccc1C(=C(C=CC(O)CC(=O)CC(=O)OC(C)(C)C)c1nnnn1C)c1ccc(F)cc1C (centres undefined) | 65 to 72
9 | CCP(=O)(CC)C(O)[C@H](CC1CCCCC1)NC(=O)[C@H](CC(C)C)NC(=O)[C@H](Cc1ccccc1)NC(=O)C1CCCC1 (some centres undefined) | 170 to 171
10 | CCCN1CCCC1CNC(=O)c1c(OC)ccc(Br)c1OC (single isomer, unassigned; (-)) | 103 to 104
11 | C=CCOc1cc(C(=O)CCCCCCCCCCCCC)c(O)c(C)c1C | 65 to 66
12 | O=C(Nc1ccc(N2CCCC2)cc1)N(C[C@H]1CC[C@H](CN(C(=O)Nc2ccc(N3CCCC3)cc2)C2CCCCC2)CC1)C1CCCCC1 | 149 to 152
13 | O=C(CC(=O)C(F)(F)F)c1ccc(Cl)cc1 | 66 to 67
14 | N#CN=C(NCCO)NCCCSc1nccc(NC(N)=NCC(F)(F)F)n1 | 114 to 116
15 | Oc1cccc2c1CC(n1cc[nH]c1=S)CC2 (centres undefined) | 274 to 276
16 | Cc1c(CO)c2cnnc(NCc3ccccc3)c2n1Cc1ccccc1 | 238 to 240
17 | COc1cc(C=O)c(C)c(OC)c1 | 63.4 to 65.1
18 | CN1Cc2c(C(=O)OC3CCCC3)ncn2-c2cccc(Cl)c2C1=O | 162 to 163
19 | CCCC(CCC)N(C[C@H]1CCC[C@H](CN(C(=O)Nc2ccc(N(C)C)cc2)C(CCC)CCC)C1)C(=O)Nc1ccc(N(C)C)cc1 (relative stereo) | 122 to 126

Row | Structure (SMILES) | melting point [°C]
20 | ClC1CCCOC1c1ccccc1 (centres undefined) | 39.5 to 40.5
21 | CCOC(=O)c1cn(CC)c2nc(N3CCN(C(C)=O)CC3)ncc2c1=O | 208 to 210
22 | CCc1nc2c(N)nc3ccccc3c2n1CC(C)(C)C(N)=O | 279 to 281
23 | CC(=O)NCc1ccc2c(c1)N(C1CCNCC1)CC2 | 165 to 167
24 | CC(O[Si](C)(C)C(C)(C)C)C1C(=O)NC1C1CCCC(OCCF)C1O (centres undefined) | 106 to 110
25 | O=C(CS(=O)Cc1ccco1)NCCCOc1cccc(C2OCCO2)c1 (centres undefined) | 95.3 to 96.1
26 | Cc1cc2c(cc1C)C(c1ccccc1)(C(F)(F)C(F)(F)F)c1cc(C)c(C)cc1O2 | 178 to 179
27 | O=C1CCC(O)=C1Cc1ccc2ccccc2c1 | 230 to 231
28 | CON=Cc1ncn2c1[C@@H]1CCN1C(=O)c1c(Cl)cccc1-2 | 199 to 200
29 | COc1cc(OCCN2CCOCC2)c(C=O)cc1-c1cccs1 | 130 to 131
30 | CCCC[C@H](NC(=O)[C@H](CC(=O)O)NC(=O)Nc1ccc([N+](=O)[O-])cc1)C(=O)OC | 204 to 205
31 | CC(=N)Nc1ccc(NC(C)=O)cc1 | 131 to 134
32 | CN1c2cccc3c2N(CCC3)S1(=O)=O | 103 to 104
33 | CCOC(=O)c1ccc(OC2CCN(C(=O)OC(C)(C)C)CC2)cc1 | 76 to 78
34 | O=S(c1[nH]c(-c2ccc(Cl)cc2)c(Br)c1Br)C(F)(F)F (centres undefined) | 173 to 176
35 | O=C(O)CCC=C(c1ccccc1)c1ccccc1 | 80 to 81.5
36 | COC(=O)c1ccccc1NC(=O)N(C)CCO | 90
37 | CCOC(=O)C(=O)c1csc(NC(=S)Nc2ccccc2F)n1 | 192 to 193
38 | COc1cscc1C(=O)NN | 91 to 92

Row | Structure (SMILES) | melting point [°C]
39 | CN(C(=O)OC(C)(C)C)c1sc(-c2cncc(F)c2)nc1I | 70 to 71
40 | Nc1nc(CN2CCN(C(c3ccccc3)c3ccccc3)CC2)cs1 | 156 to 160
41 | CCC(CO)c1ccc(N=C2SCCS2)cc1 (centres undefined) | 98.5 to 100
42 | CN1CCN(CNc2nc(=O)n(CN3CCN(C)CC3)cc2F)CC1 | 165 to 166
43 | COC(=O)CCCC#Cc1cc(C)c2oc(=O)n(C)c2c1 | 97 to 98
44 | O=[N+]([O-])C(CN1CCOCC1)=C1NCCCS1 | 131 to 132
45 | Cc1c(-c2ccccc2)nn(C(C)(C)C(=O)N(C)C)c1C | 115 to 117
46 | COC(=NC(=O)c1ccccc1)NC(=O)c1ccccc1 | 139 to 141
47 | O=c1cc(-c2ccncc2)nc2n1CC(F)(F)CN2 | 239 to 240
48 | CCCNc1cn(-c2cccnc2)nc1Cl | 92 to 94
49 | O=C(CBr)Nc1cc(F)c(F)cc1C(=O)O | 177 to 180
50 | CON1C(=O)CC2(CCN(C(=O)C3=CN(C)C=CC3)CC2)C1=O | 46 to 62
51 | N#Cc1c[nH]c(Cl)c1-c1cccc(F)c1 | 158 to 161
52 | O=C(/C=C/c1ccccc1)NC1CCN(CCC2CCOc3ccccc32)CC1 (centres undefined) | 168 to 170
53 | CC(=O)NCCCC(=O)c1ccc(Cl)cc1C(CC(=O)O)c1ccccc1 (centres undefined) | 114 to 116
54 | COC(=O)CCc1ccc(CCNC(=O)c2cc(Cl)ccc2OC)cc1 | 58 to 61
55 | CCCCCCCCCCCCn1sncc1=O | 68 to 70
56 | COC(=O)c1cc(O)c(N=Nc2ccccc2)c(O)c1 | 216 to 218
57 | N#CCC(CC#N)c1cccc(Cl)c1Cl | 76 to 78

Now from value to compound:

Row | melting point [°C] | Structure (SMILES)
58 | 132 to 134 | CCc1nc2nccc(-c3cccc(C(F)(F)F)c3)n2n1
59 | 148 to 149 | O=C(ON=C1C(=O)c2ccccc2-c2ccccc21)c1ccccc1
60 | 152 to 154 | CCc1nc2c(N)nc3cc(OCc4ccc(C(F)(F)F)o4)ccc3c2s1
61 | 203 to 205 | CN(C)CCOc1ccc2oc(-c3cc4ccccc4cn3)cc(=NO)c2c1
62 | 136 to 138 | CCc1cc(C(=O)c2ccccc2Cl)c(-n2c(CC)nnc2CNC(=O)c2ccc(Cl)c(Cl)c2)s1
63 | 161 to 163 | COc1ccc(-c2nc([N+](=O)[O-])n(C(=O)c3ccccc3)c2-c2ccc(OC)cc2)cc1
64 | 167 to 169 | CC(=O)Oc1ccc(-c2cc(=O)c3cccnc3o2)cc1
65 | 220 to 223 | O=C(CNc1ccc2[nH]c(=O)oc2c1)N1CCC(Oc2ccccc2)CC1
66 | 138 to 140 | CC(C)C[C@@H](C(=O)O)N1C(=O)[C@@H](N2C(=O)OC[C@@H]2c2ccccc2)[C@H]1CCc1ccccc1
67 | 245 | CC1(C)CCC(C)(C)c2cc(-c3cc(-c4ccc(C(=O)O)cc4)ccc3OCCCCCC(=O)O)ccc21
68 | 108 to 112 | O=C(O)c1ccc(COc2cccc(-c3c(-c4ccccc4)cnc4c(C(F)(F)F)cccc34)c2)cc1
69 | 65 to 69 | C=CCOC(=O)NC(C)(C)c1ccc(-c2nc(Nc3ccc(CCN4CCOCC4)cc3)ncc2Cl)cc1
70 | 67 to 69 | O=C(CO)c1ccc(Oc2ccccc2)cc1
71 | 111 to 114 | CC(C)=CCCOc1c(-c2ccc(S(C)(=O)=O)cc2)cnn(-c2ccc(F)cc2)c1=O
72 | 154 to 156 | CSc1c(C(Cc2ccccc2)C(=O)O)ccc2c3ccccc3n(Cc3ccccc3)c12 (centres undefined)
73 | 90.6 to 91.4 | CCCCc1ccc(NC(=O)NOCc2ccccc2)cc1
74 | 328 to 332 | O=c1c(-c2ccccc2)c[nH]nc1-c1ccccc1
75 | 268 to 270 | Cc1cc(C)n(-c2nc(Nc3ccc(N4CCOCC4)cc3)c3ccccc3n2)n1
76 | 174 | CONc1nc(-c2ccccc2)c2cc(Cl)ccc2n1
77 | 85 to 86 | CC(C)(c1ccccc1)N1CC=C(c2ccccc2)C1=O
78 | 115 to 117 | CS(=O)(=O)c1ccc(-c2nnc(Oc3ccc(F)cc3F)cc2-c2ccc(Cl)cc2)cc1

Row | melting point [°C] | Structure (SMILES)
79 | 87 to 89 | N#Cc1ccccc1N1CCN(C[C@@H](O)COc2cccc(-c3noc4ccsc34)c2)CC1
80 | 184 to 186 | Cc1nc(Nc2ccc(Cl)cc2)sc1C(=O)c1sc(Nc2ccc(Cl)cc2)nc1C
81 | 65 to 75 | Cc1ccc(C(=O)c2c(-c3ccc(OCC(O)CNC(C)C)cc3)oc3ccccc23)cc1 (centres undefined)
82 | 145 to 146 | O=C(O)CCCCCCCn1cnc(-c2ccccc2Cl)c1-c1ccccc1Cl
83 | 86 | CCC(C)N(C)C(=O)c1cc(-c2ccccc2F)c2ccccc2n1 (centres undefined)
84 | 186 to 189 | COC(=O)C(C#N)C(=O)Nc1ccc(C(F)(F)F)cc1 (centres undefined)
85 | 85 to 88 | COC(=O)c1cccc(-c2cn(C)cc(-c3ccc(C)cc3)c2=O)c1
86 | 106 to 108 | CCOC(=O)c1ccc(-c2ccc(OC)c(-c3cccc([N+](=O)[O-])c3)c2)cc1
87 | 268 to 270 | CC(C)COc1ccc(-c2nc3cccc(C(=O)O)c3s2)cc1C#N
88 | 169 to 177 | CCC(C)c1ccccc1N1C(=O)CS/C1=N\C(=O)Nc1ccc(-c2ncn(-c3ccc(OC(F)(F)F)cc3)n2)cc1 (centres undefined)
89 | 167 | OCc1ccc(-c2ccccc2-c2nnnn2C(c2ccccc2)(c2ccccc2)c2ccccc2)cc1
90 | 92 to 94 | Cc1c(NC(=O)c2ccc(OC[C@@H]3CCCO3)cc2)ccc2cc(CNC[C@H]3CCCO3)cnc12
91 | 240 to 255 | C[C@H](NC(=O)CCn1cc(C2=C(c3cn(C)c4ccccc34)C(=O)NC2=O)c2ccccc21)C(=O)O
92 | 105 | CCCCCCCCCCc1ccc(COc2ccc(-c3ncc(CCCCCCCCC)cn3)cc2)cc1
93 | 143 to 146 | COc1cc(C(C)=O)ccc1OCCCN1CCC(C(O)(c2ccc(F)c(F)c2)c2ccc(F)c(F)c2)CC1
94 | 160 to 162 | COC(=O)CCc1ccc(N2CCN(c3ccc(C#N)cc3)C2=O)cc1
95 | 230 to 232 | Cc1ccc(-n2nc(C)c(C(=O)O)n2)cc1
96 | 220 | O=C(Nc1ccccn1)Nc1cccc2c1C1CC(O)CCN1C2=O (centres undefined)
97 | 296 | O=C1Nc2ccc(I)cc2C1=NNC(=O)c1ccc(Oc2ccccc2)cc1
98 | 118 to 120 | CC1(C)CCC(N2c3ccccc3Oc3ccc(Cl)cc32)=N1
99 | 66 to 69 | COc1cccc2c(C(=O)c3ccc(OC4CCCCC4N4CCCCC4)cc3)c(-c3ccc(OCCN4CCCC4)cc3)sc12 (centres undefined)
